Assay results: patent US7135615B2, “Chromosome doubling method” (The Curators of the University of Missouri, priority 2001, dated 2006)
Where “and” joins values, the source holds several entries; their conditions need not be identical. Equal values may be shown once. Marks after values point to notes of the source that are not given here.

Legend:
[1] = tested on: maize B55 haploid seedlings; assay: nitrous oxide gas treatment at 3–8 leaf stages, B55 haploids (Example 3); conditions: for Ear (open pollinated): No. of fertile sectors /ear / Ear (open pollinated): No. of kernels produced /ear / Ear (open pollinated): Plants with fertile sectors % / No. of tassel branch Average / Plant height (cm) Average / Tassel: No. of fertile anthers extruded/tassel / Tassel: No. of fertile sectors/tassel / Tassel: Plants with fertile sectors % / Ear (open pollinated): Plants with fertile sectors No. / Tassel: Plants with fertile sectors No. / No. of plants Survived: 600 kPa, 2 days
Description: Leaf stages were defined as follows, At the 3 leaf stage, there are three elongated leaves and the tip of the fourth leaf appears at the center of the leaf whorl. This stage is defined as V2 according to Ritchie et al. (1997). At the 8 leaf stage, there are 8 elongated leaves and the tip of the 9th and 10th leaves appear at the center of the leaf whorl (late V5 stage). At the 6 leaf stage, six elongated leaves are observable, and the tip of seventh leaf appears at the leaf whorl (late V4 or early V5 stage). Nine to sixteen haploid plants were treated at each stage using a large air tight iron chamber (FIG. 3). […] Moistened calcium hydroxide (50 g) wrapped in a paper towel was included to absorb carbon dioxide that is produced by the seedlings, as carbon dioxide at high concentration will injure the seedlings during the treatment. The soil of the pots was dried prior to treatment to prevent root injuries. […] The gas was introduced slowly into the chamber over a 10 minutes time frame.
After the treatment, seedlings were transplanted into larger pots, and grown in a greenhouse. A relatively cool temperature (below 25° C.) was maintained to permit the appropriate development of doubled sectors. At flowering, the ears were cross pollinated by an appropriate pollen source to reveal all the fertile sectors on the ears. On the treated plants, plant height (cm), tassel size (cm), number of tassel branches, ear length (cm), the number of fertile sectors on a tassel and an ear, the number of anthers on a tassel, and the number of kernels on an ear were recorded.
Analyses of variance and Duncan's Multiple Range Tests were performed to determine the effects of treatments on the plant height (cm), tassel size (cm), and ear length (cm). Chi square tests were used to determine the effects of treatments upon the proportion of plants that developed fertile tassel and ear sectors. The ratios of untreated plants with fertile sectors were used to estimate the significance of the ratio of treated plants with fertile sectors.
Nonparametric tests were performed to compare the distributions. The primary test was the Kruskal-Wallis test. In the initial tests, the null hypothesis considered was that the distributions would be the same for each treatment and control. If the null hypothesis was rejected (P<0.05), then pair wise comparisons of each treatment to the control using Dunn's method were conducted. The tassel branch number was low incidence count data and was analyzed using the same nonparametric tests mentioned above.

B55 haploid plants = assay: nitrous oxide treatment of B55 haploids (initial study, Example 1)
Procedure: Maize haploids were induced by the stock 6 procedure (Coe 1959) and separated by the color marker R1-scm2 (Kato, 1999c). […] Haploid seeds were surface sterilized with the fungicide Captan and germinated in moist vermiculite at 30° C. for two days. The germinated seeds were planted at the edge of a small pot filled with ProMix (FIG. 1).
Application of a water mist to the plastic carpet may be used to prevent the occurrence of a static charge. […] The chamber was made from steel pipes and flanges designed for industrial use. Two 3 foot long pipes with flanges at both sides were connected to each other with 8 bolts to form the chamber. Iron covers were applied at the both ends. […] The chamber was preferably earthed.
Because the gas from the tank was very cold, use of a long introductory tube (5 m) submerged in water was made to warm up the gas before introduction into the chamber. Application of paper wrapped moistened calcium hydroxide was also preferable to absorb accumulating carbon dioxide in the chamber.
After N2O treatment the seedlings were kept at warm temperature (20–25° C.) in the greenhouse for two to three days and transplanted to the field or pots in the greenhouse. […] The plants were then grown and self pollinated. Cultivation and self pollination methods were the same as for diploid maize plants.

SMILES: [N-]=[N+]=O [nitrous oxide gas, nitrous oxide]
- Ear (open pollinated): No. of fertile sectors /ear ([1]; 3 leaf stage): 1.1 /ear
- Ear (open pollinated): No. of kernels produced /ear ([1]; 3 leaf stage): 49.0* /ear
- Ear (open pollinated): Plants with fertile sectors % ([1]; 3 leaf stage): 67%
- No. of tassel branch Average ([1]; 3 leaf stage): 18.8*
- Plant height (cm) Average ([1]; 3 leaf stage): 183 cm·days
- Tassel: No. of fertile anthers extruded/tassel ([1]; 3 leaf stage): 35.6 /tassel
- Tassel: No. of fertile sectors/tassel ([1]; 3 leaf stage): 1.1 /tassel
- Tassel: Plants with fertile sectors % ([1]; 3 leaf stage): 67%
- Ear (open pollinated): Plants with fertile sectors No. ([1]; 3 leaf stage, 9 examined): 6
- Tassel: Plants with fertile sectors No. ([1]; 3 leaf stage, 9 examined): 6
- No. of plants Survived ([1]; 3 leaf stage, 10 treated): 9
- number of anthers /tassel, span over treatments ([1]; 3–8 leaf stage treatments): 35.6–521 /tassel
- number of kernels on the ears, span over treatments ([1]; 3–8 leaf stage treatments): 10.9–49.0
- Ear (open pollinated): No. of fertile sectors /ear ([1]; 4 leaf stage): 2.8** /ear
- Ear (open pollinated): No. of kernels produced /ear ([1]; 4 leaf stage): 21.5** /ear
- Ear (open pollinated): Plants with fertile sectors % ([1]; 4 leaf stage): 100** %
- No. of tassel branch Average ([1]; 4 leaf stage): 20.1
- Plant height (cm) Average ([1]; 4 leaf stage): 168 bc cm
- Tassel: No. of fertile anthers extruded/tassel ([1]; 4 leaf stage): 111.5* /tassel
- Tassel: No. of fertile sectors/tassel ([1]; 4 leaf stage): 1.5 /tassel
- Tassel: Plants with fertile sectors % ([1]; 4 leaf stage): 64%
- Ear (open pollinated): Plants with fertile sectors No. ([1]; 4 leaf stage, 11 examined): 11
- Tassel: Plants with fertile sectors No. ([1]; 4 leaf stage, 11 examined): 7
- No. of plants Survived ([1]; 4 leaf stage, 11 treated): 11
- Ear (open pollinated): No. of fertile sectors /ear ([1]; 5 leaf stage): 1.6 /ear
- Ear (open pollinated): No. of kernels produced /ear ([1]; 5 leaf stage): 40.4** /ear
- Ear (open pollinated): Plants with fertile sectors % ([1]; 5 leaf stage): 89* %
- No. of tassel branch Average ([1]; 5 leaf stage): 13.9**
- Plant height (cm) Average ([1]; 5 leaf stage): 170 c cm
- Tassel: No. of fertile anthers extruded/tassel ([1]; 5 leaf stage): 139.6** /tassel
- Tassel: No. of fertile sectors/tassel ([1]; 5 leaf stage): 3.0* /tassel
- Tassel: Plants with fertile sectors % ([1]; 5 leaf stage): 100** %
- Ear (open pollinated): Plants with fertile sectors No. ([1]; 5 leaf stage, 9 examined): 8
- Tassel: Plants with fertile sectors No. ([1]; 5 leaf stage, 9 examined): 9
- No. of plants Survived ([1]; 5 leaf stage, 9 treated): 9
- frequency of fertile sectors on the tassels ([1]; 5–7 leaf stages): 100%
- number of anthers on the tassels ([1]; 5–7 leaf stages): 140–521 /tassel
- number of kernels on the ears ([1]; 5–7 leaf stages): 40.4–47.5 /ear
- Ear (open pollinated): No. of fertile sectors /ear ([1]; 6 leaf stage): 1.7 /ear
- Ear (open pollinated): No. of kernels produced /ear ([1]; 6 leaf stage): 45.5** /ear
- Ear (open pollinated): Plants with fertile sectors % ([1]; 6 leaf stage): 90* %
- No. of tassel branch Average ([1]; 6 leaf stage): 14.5**
- Plant height (cm) Average ([1]; 6 leaf stage): 165 bc cm
- Tassel: No. of fertile anthers extruded/tassel ([1]; 6 leaf stage): 521 /tassel and 521.1** /tassel
- Tassel: No. of fertile sectors/tassel ([1]; 6 leaf stage): 5.7** /tassel
- Tassel: Plants with fertile sectors % ([1]; 6 leaf stage): 100** %
- Ear (open pollinated): Plants with fertile sectors No. ([1]; 6 leaf stage, 10 examined): 9
- Tassel: Plants with fertile sectors No. ([1]; 6 leaf stage, 10 examined): 10
- No. of plants Survived ([1]; 6 leaf stage, 10 treated): 10
- Ear (open pollinated): No. of fertile sectors /ear ([1]; 7 leaf stage): 1.8 /ear
- Ear (open pollinated): No. of kernels produced /ear ([1]; 7 leaf stage): 47.5** /ear
- Ear (open pollinated): Plants with fertile sectors % ([1]; 7 leaf stage): 82%
- No. of tassel branch Average ([1]; 7 leaf stage): 14.3**
- Plant height (cm) Average ([1]; 7 leaf stage): 168 bc cm
- Tassel: No. of fertile anthers extruded/tassel ([1]; 7 leaf stage): 267.3** /tassel
- Tassel: No. of fertile sectors/tassel ([1]; 7 leaf stage): 9.6** /tassel
- Tassel: Plants with fertile sectors % ([1]; 7 leaf stage): 100** %
- Ear (open pollinated): Plants with fertile sectors No. ([1]; 7 leaf stage, 11 examined): 9
- Tassel: Plants with fertile sectors No. ([1]; 7 leaf stage, 11 examined): 11
- No. of plants Survived ([1]; 7 leaf stage, 11 treated): 11
- Ear (open pollinated): No. of fertile sectors /ear ([1]; 8 leaf stage): 2.3** /ear
- Ear (open pollinated): No. of kernels produced /ear ([1]; 8 leaf stage): 10.9* /ear
- Ear (open pollinated): Plants with fertile sectors % ([1]; 8 leaf stage): 92** %
- No. of tassel branch Average ([1]; 8 leaf stage): 20.4*
- Plant height (cm) Average ([1]; 8 leaf stage): 137 a cm
- Tassel: No. of fertile anthers extruded/tassel ([1]; 8 leaf stage): 283.2** /tassel
- Tassel: No. of fertile sectors/tassel ([1]; 8 leaf stage): >18.6** /tassel
- Tassel: Plants with fertile sectors % ([1]; 8 leaf stage): 100** %
- Ear (open pollinated): Plants with fertile sectors No. ([1]; 8 leaf stage, 12 examined): 11
- Tassel: Plants with fertile sectors No. ([1]; 8 leaf stage, 12 examined): 12
- No. of plants Survived ([1]; 8 leaf stage, 12 treated): 12
- B55 haploid plants that could be self pollinated (B55 haploid plants; B55 haploids, 6 atm (600 kPa), two days, room temperature): 70–90%
- treated plants sensitive to drought following treatment (B55 haploid plants; after N2O treatment, upon transplantation): 10%
- induction of doubled sectors (B55 haploid plants; initial study, B55 haploids, 600 kPa): induced doubled sectors in both the tassel and the ear
- damage to plants (B55 haploid plants; initial study, sealed chamber, room temperature): not damaged
